SMILES strings stand for the structures.

For assay [1], the target named is T1, 5-hydroxytryptamine receptor 1A (Mus musculus, UniProt Q64264).
T1 sequence (Q64264 whole entry): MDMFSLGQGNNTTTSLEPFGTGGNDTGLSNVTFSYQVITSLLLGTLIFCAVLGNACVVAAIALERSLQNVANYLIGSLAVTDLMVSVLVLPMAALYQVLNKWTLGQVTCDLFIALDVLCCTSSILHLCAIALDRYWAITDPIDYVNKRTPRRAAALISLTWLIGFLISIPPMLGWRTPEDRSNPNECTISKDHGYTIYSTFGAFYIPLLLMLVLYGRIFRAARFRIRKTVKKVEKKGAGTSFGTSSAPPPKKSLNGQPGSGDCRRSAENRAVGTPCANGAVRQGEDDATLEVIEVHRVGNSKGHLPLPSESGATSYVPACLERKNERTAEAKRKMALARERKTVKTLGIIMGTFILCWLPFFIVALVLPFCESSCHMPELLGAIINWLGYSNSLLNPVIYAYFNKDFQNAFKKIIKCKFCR
Briefly: The compound's binding affinity against 5-hydroxytryptamine 1A receptor.

Assay [2] concerns the target D(2) dopamine receptor (Homo sapiens, UniProt P14416). Briefly: The compound's binding affinity against Dopamine receptor D2.
For assay [3], the target named is T2, Alpha-2B adrenergic receptor (Rattus norvegicus, UniProt P19328).
T2 sequence (P19328 whole entry): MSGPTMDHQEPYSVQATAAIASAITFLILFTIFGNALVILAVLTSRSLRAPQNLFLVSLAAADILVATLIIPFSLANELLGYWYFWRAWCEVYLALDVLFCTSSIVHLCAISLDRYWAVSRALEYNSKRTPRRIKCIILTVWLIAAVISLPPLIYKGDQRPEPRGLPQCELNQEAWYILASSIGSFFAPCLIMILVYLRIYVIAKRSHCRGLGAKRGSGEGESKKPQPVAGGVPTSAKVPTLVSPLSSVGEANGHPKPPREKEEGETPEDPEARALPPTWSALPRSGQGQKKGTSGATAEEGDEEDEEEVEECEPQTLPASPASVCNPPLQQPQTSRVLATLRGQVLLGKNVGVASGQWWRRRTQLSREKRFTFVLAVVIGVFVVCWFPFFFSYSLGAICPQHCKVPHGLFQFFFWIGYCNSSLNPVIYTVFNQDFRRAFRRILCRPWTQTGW
Briefly: The compound's binding affinity against Alpha-2B adrenergic receptor from rat kidney homogenate in the presence of phentolamine.

Sequence of D(2) dopamine receptor (P14416 whole entry): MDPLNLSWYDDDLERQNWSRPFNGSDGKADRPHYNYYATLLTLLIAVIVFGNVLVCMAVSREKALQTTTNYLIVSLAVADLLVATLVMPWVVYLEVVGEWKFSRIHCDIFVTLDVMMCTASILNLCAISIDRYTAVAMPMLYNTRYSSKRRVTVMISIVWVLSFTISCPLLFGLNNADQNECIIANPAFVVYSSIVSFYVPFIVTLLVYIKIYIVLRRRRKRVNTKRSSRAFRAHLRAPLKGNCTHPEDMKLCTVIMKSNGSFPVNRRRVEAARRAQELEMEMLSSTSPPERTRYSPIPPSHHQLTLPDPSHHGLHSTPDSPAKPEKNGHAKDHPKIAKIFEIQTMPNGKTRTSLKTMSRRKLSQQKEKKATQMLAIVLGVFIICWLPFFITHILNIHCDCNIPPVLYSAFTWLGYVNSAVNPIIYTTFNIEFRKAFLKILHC

Broadly, the pKi is −log10 of the Ki, conventionally taken in molar units. Take `Cc1nn(C)c2ncc(C(=O)N(C)C)c(NCCCN3CCN(c4ccccc4OCC(F)(F)F)CC3)c12`: the pKi in assay [1] is 7.5; in assay [2] it was 8.1; in assay [3], 8.6.

On to `COc1cc(F)ccc1N1CCN(CCCNc2ncccc2C(=O)N(C)C)CC1`, for which the pKi was found to be 6.7 in assay [1], 6.7 in assay [2] and 6.5 in assay [3].

On to `COc1cc(F)ccc1N1CCN(CCCNc2c(C(=O)N(C)C)cnc3c2c(C)nn3C)CC1`, for which the pKi in assay [1] worked out at 6.5; in assay [2], 6.4.

On to `COc1ccccc1N1CCN(CCCNc2ncccc2C(=O)N(C)C)CC1`, for which the negative-log Ki (pKi) was found to be 7.6 in assay [1] and 7.4 in assay [2].
